Experimental data from patent US20170128720A1, “METHODS AND DEVICES FOR MODULATING GENE EXPRESSION AND ENZYME ACTIVITY” (VOMARIS INNOVATIONS, INC, priority 2014, published 2017).
Like-named read-outs stand apart in the source and are kept apart here.

What was measured:
[1] = tested on: HUVEC cells; assay: EF-induced reorientation of endothelial cells, drug inhibition (orientation index Oi); type: cell-based
Procedure: HUVEC cells were seeded in a trough formed by two parallel (1 cm apart) strips of glass coverslip (No. 1, length of 22 mm) fixed to the base of the dish with silicone grease. Scratch lines were made perpendicular to the long axis of the chamber with a fine sterile needle and used as reference marks for directed cell migration. Cells were incubated for 24-48 hours (37° C., 5% CO2) before a roof coverslip was applied and sealed with silicone grease. The final dimensions of the chamber, through which current was passed, were 22×10×0.2 mm. Agar-salt bridges not less than 15 cm long were used to connect silver/silver-chloride electrodes in beakers of Steinberg's solution (58 mM NaCl, 0.67 mM KCl, 0.44 mM Ca(NO3)2, 1.3 mM MgSO4, 4.6 mM Trizma base, pH 7.8-8.0), to pools of excess culture medium at either side of the chamber. Field strengths were measured directly at the beginning of, the end of and during each experiment. No fluctuations in field strength were observed. […] The same concentration of drug was present during EF (electric field) exposure in a CO2 incubator.
A series of images was taken with an image analyser immediately before EF exposure and at 4, 8 and 24 hours of EF exposure. Cell orientation was quantified as an orientation index (Oi), which is defined as Oi=cos 2(α), where α is the angle formed by the long axis of a cell with a line drawn perpendicular to the field lines. A cell with its long axis parallel to the vector of the EF will have an Oi of −1, and a cell with its long axis exactly perpendicular to the EF vector will have an Oi of +1. A randomly oriented population of cells will have an average Oi {defined as [Σn cos 2(α)]÷n} of 0. The significance of this two-dimensional orientation distribution against randomness was calculated using Rayleigh's distribution. A long:short axis ratio was calculated for assessment of elongation.

[2] = tested on: HUVEC cells; assay: EF-induced elongation of endothelial cells, drug inhibition (long:short axis ratio); type: cell-based; conditions: for long:short axis ratio / long axis in EF-treated cells: drug 50 μM
Procedure: HUVEC cells were seeded in a trough formed by two parallel (1 cm apart) strips of glass coverslip (No. 1, length of 22 mm) fixed to the base of the dish with silicone grease. Scratch lines were made perpendicular to the long axis of the chamber with a fine sterile needle and used as reference marks for directed cell migration. Cells were incubated for 24-48 hours (37° C., 5% CO2) before a roof coverslip was applied and sealed with silicone grease. The final dimensions of the chamber, through which current was passed, were 22×10×0.2 mm. Agar-salt bridges not less than 15 cm long were used to connect silver/silver-chloride electrodes in beakers of Steinberg's solution (58 mM NaCl, 0.67 mM KCl, 0.44 mM Ca(NO3)2, 1.3 mM MgSO4, 4.6 mM Trizma base, pH 7.8-8.0), to pools of excess culture medium at either side of the chamber. Field strengths were measured directly at the beginning of, the end of and during each experiment. No fluctuations in field strength were observed. […] (50 μM), the Rho kinase inhibitor Y27632 (50 μM), both Akt and Rho kinase inhibitors (10 μM each) or latrunculin (50 nM) for 1 hour before EF stimulation. The same concentration of drug was present during EF (electric field) exposure in a CO2 incubator.
A series of images was taken with an image analyser immediately before EF exposure and at 4, 8 and 24 hours of EF exposure. Cell orientation was quantified as an orientation index (Oi), which is defined as Oi=cos 2(α), where α is the angle formed by the long axis of a cell with a line drawn perpendicular to the field lines. A cell with its long axis parallel to the vector of the EF will have an Oi of −1, and a cell with its long axis exactly perpendicular to the EF vector will have an Oi of +1. […] The significance of this two-dimensional orientation distribution against randomness was calculated using Rayleigh's distribution. A long:short axis ratio was calculated for assessment of elongation.
HUVEC cells elongated dramatically in an EF. […] We quantified the elongation of the cells using a long:short axis ratio. […]

[3] = drug 50 μM, 1 hour before and during EF

C[C@@H](N)[C@H]1CC[C@H](C(=O)Nc2ccncc2)CC1 [Y27632]
orientation index Oi ([1]; 10 μM): 0.55±0.05
orientation response in EF ([1]; 10 μM, 20 μM and 50 μM): decreased the orientation response significantly
orientation index Oi ([1]; 20 μM): 0.45±0.05
orientation index Oi ([1]; 50 μM): 0.24±0.05
long:short axis ratio / long axis in EF-treated cells [2]: significantly decreased

COc1cc2ncnc(Nc3ccc(Cl)cc3F)c2cc1OC [VEGFR inhibitor, 4-[(4′-chloro-2′-fluoro)phenylamino]-6,7-dimethoxyquinazoline]
reorientation / orientation response of cells in an EF [1, 3]: completely abolished

C/C1=C/C(=O)O[C@@H]2C[C@@H](CC[C@H](C)/C=C\C=C\CC1)O[C@@](O)([C@@H]1CSC(=O)N1)C2 [Latrunculin A]
orientation response in EF ([1]; latrunculin 50 nM): suppressed the orientation response significantly
EF-induced elongation response ([2]; latrunculin 50 nM): completely abolished

N#CC(=C(/N)Sc1ccccc1N)/C(C#N)=C(\N)Sc1ccccc1N [U0126]
orientation index Oi [1]: 0.33±0.03
reorientation / orientation response of cells in an EF [1]: decreased the orientation to a similar extent

1-L-6-hydroxymethyl-chiro-inositol 2-[(R)-2-O-methyl-3-O-octadecylcarbonate] [Akt inhibitor]
reorientation / orientation response of cells in an EF [1, 3]: significantly decreased
long:short axis ratio / long axis in EF-treated cells [2]: significantly decreased
